Assay results published in paper PMC13114161 (Antibiotics, 2026).
Like-named read-outs stand apart in the source and are kept apart here.

Key:
[1] = tested on: P. aeruginosa; design: method as in PMID 35052908, PMID 35740123; details: against P. aeruginosa; cited from earlier work
[2] = Plasma protein binding (equilibrium dialysis); assay type: in vitro ADME
Protocol: Plasma protein binding was determined experimentally using equilibrium dialysis, with compound concentrations in plasma and buffer quantified by LC-MS/MS.

[3] = tested on: P. aeruginosa ATCC 27853; assay: Nitrocefin assay for outer-membrane permeabilization; assay type: cell-based, Pseudomonas aeruginosa
Text: The significant toxicity of previously identified EPIs has prevented their clinical use. So, understanding the TXA11114 mechanism of action (MoA) was of paramount importance to eliminate off-target effects that may arise from other activities besides efflux pump inhibition. Historically EPIs are known to augment the action of traditional antibiotics by compromising the integrity of bacterial membranes, allowing increased drug accumulation. One of the major concerns of earlier EPIs was their ability to disrupt bacterial membranes. Two approaches were taken to investigate if membrane disruption played a role in the potentiation of antibiotics seen in Table 2 by TXA11114: (1) a flow cytometry-based propidium iodide (PI) assay to monitor inner-membrane permeabilization, and (2) a nitrocefin (NCF) assay to monitor outer-membrane permeabilization. NCF is a chromogenic cephalosporin that changes from yellow to red when the amide bond in the β-lactam ring is hydrolyzed by a β-lactamase. The rate of hydrolysis in intact cells is slow, as it is limited by the rate of diffusion of […]. […] Cells with intact membranes exclude PI and remain non-fluorescent, while cells with compromised membrane integrity allow PI to enter and bind to DNA, resulting in fluorescence. […]

[4] = tested on: P. aeruginosa; assay: MIC potentiation of antimicrobial agents by EPIs; assay type: cell-based, Pseudomonas aeruginosa; details: 1/16 MIC
Protocol: In contrast, the activities of gentamicin and imipenem were unchanged in the presence of TXA11114 under the conditions tested. Although gentamicin can be transported by the MexXY efflux system, the absence of potentiation in this assay is not sufficient to draw conclusions regarding MexXY inhibition or overall efflux specificity.
MIC assays for potentiation of antimicrobial activity against P. aeruginosa were performed as described previously.

[5] = molecular target: T1, CYP3A4 (Homo sapiens, UniProt P08684); assay: Cytochrome P450 inhibition; assay type: in vitro ADME; details: human liver microsomes; read-out: CYP Inhibition IC50, 3A4
T1 construct: from tissue; host or cells: human liver microsomes
Protocol: (§1) Inhibition of CYP1A2, CYP2D6, CYP2C9, CYP2C19, and CYP3A4 by TXA11114 was assessed in human liver microsomes by measuring the inhibition of probe substrate metabolism. Phenacetin, bufuralol, diclofenac, S-mephenytoin, and midazolam were used as probe substrates for CYP1A2, CYP2D6, CYP2C9, CYP2C19, and CYP3A4, respectively. Corresponding metabolites (acetaminophen, OH-bufuralol, 4-OH diclofenac, 4-OH mephenytoin, and 1-OH midazolam) were quantified by LC-MS/MS. Selective inhibitors (fluvoxamine (CYP1A2), quinidine (CYP2D6), sulfaphenazole (CYP2C9), ticlopidine (CYP2C19), and ketoconazole (CYP3A4)) were used as positive controls. Test and control compounds, prepared in DMSO at various concentrations, were spiked into 2× microsomal reaction mixtures, and 50 µL aliquots were transferred to individual wells. Probe substrates (25 µL, 4× concentration) were added to the respective wells and pre-incubated for 5 min at 37 °C. Reactions were initiated by the addition of 25 µL NADPH (4×) and incubated for 5 min (CYP3A4), 10 min (CYP1A2, CYP2D6, CYP2C9), or 20 min (CYP2C19). Reactions were quenched with 100 µL ice-cold acetonitrile containing glipizide as an internal standard. Plates were centrifuged at 4000 rpm for 15 min, and 100 µL supernatants were analyzed by LC-MS/MS in MRM mode. […] Percent inhibition was calculated as 100 − percent activity. IC50 values were determined using GraphPad Prism (version 5.02).

[6] = molecular target: T2, CYP2D6 (Homo sapiens, UniProt P10635); assay: Cytochrome P450 inhibition; assay type: in vitro ADME; details: human liver microsomes; read-out: CYP Inhibition IC50, 2D6
T2 construct: from tissue; host or cells: human liver microsomes
Protocol: as §1

[7] = in vitro; assay type: cell-based; details: human
Protocol: (§2) The cytotoxicity of TXA11114 was evaluated in HEK293T and A549 cell lines using the CellTiter-Glo™ assay (Promega, Madison, WI, USA). HEK293T cells (human embryonic kidney cells transformed with sheared adenovirus 5 DNA and expressing SV40 large T antigen) and A549 cells (human alveolar basal epithelial adenocarcinoma cell line; hypotriploid with a modal chromosome number of 66) were obtained from Sai Life Sciences Ltd. (Hyderabad, India). These cell lines are well-characterized and consistent with commonly used reference lines (e.g., A549, ATCC CCL-185).
(§3) TXA11114 was tested in a dose–response format with a top concentration of 20 µM using 2-fold serial dilutions in triplicate. Doxorubicin and staurosporine were included as reference controls. Cells (1200 cells/well in 27 µL complete medium) were seeded into 384-well plates and incubated overnight at 37 °C with 5% CO2. The following day, cells were treated with 3 µL of 10× serially diluted compounds. After a 24 h incubation, CellTiter-Glo reagent was added, and plates were gently shaken for 15–20 min at room temperature. Luminescence was measured using an EnVision multimode plate reader (PerkinElmer, Thane, India).

[8] = in vitro; assay type: cell-based; details: human; remark: listed apart in the source
Protocol: as §2, §3

[9] = tested on: P. aeruginosa AR-0232; assay: Time-kill study; assay type: cell-based, Pseudomonas aeruginosa; details: levofloxacin 1X-MIC + TXA11114, by 24 h
Protocol: (§4) Time-kill studies were carried out as described previously with the following changes.

[10] = tested on: P. aeruginosa ATCC 27853; assay: Time-kill study; assay type: cell-based, Pseudomonas aeruginosa; details: levofloxacin 1X-MIC + TXA11114
Protocol: as §4

[11] = tested on: P. aeruginosa DA7232; assay: Levofloxacin accumulation assay; assay type: cell-based, Pseudomonas aeruginosa; details: vs vehicle-treated controls
Protocol: The bacterial culture samples were treated on ice for 15 min, centrifuged, washed with PBSMG (1X PBS, 1 mM MgCl2, 100 mM glucose) and then resuspended in 1 mL of glycine-HCl buffer (pH 3.0) overnight for cell lysis, followed by centrifugation. The fluorescence of 100 µL of supernatant was read at 490 nm following a 355 nm excitation in a SpectraMax iD5 spectrophotometer (Molecular Devices, San Jose, CA, USA).

T1 sequence (P08684 whole entry): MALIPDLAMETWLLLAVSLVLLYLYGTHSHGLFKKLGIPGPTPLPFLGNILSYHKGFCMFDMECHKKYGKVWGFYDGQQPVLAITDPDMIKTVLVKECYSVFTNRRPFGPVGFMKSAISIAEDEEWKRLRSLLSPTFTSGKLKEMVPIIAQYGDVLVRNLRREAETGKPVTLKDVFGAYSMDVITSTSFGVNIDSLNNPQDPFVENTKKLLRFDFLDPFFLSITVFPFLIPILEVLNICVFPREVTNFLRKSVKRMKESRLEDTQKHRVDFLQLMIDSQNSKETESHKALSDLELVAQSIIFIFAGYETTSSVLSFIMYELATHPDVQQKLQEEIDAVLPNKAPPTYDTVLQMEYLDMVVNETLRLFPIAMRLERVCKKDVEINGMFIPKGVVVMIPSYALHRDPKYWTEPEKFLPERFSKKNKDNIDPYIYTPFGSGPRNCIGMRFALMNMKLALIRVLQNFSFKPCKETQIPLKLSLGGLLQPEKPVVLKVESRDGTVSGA
T2 sequence (P10635 whole entry): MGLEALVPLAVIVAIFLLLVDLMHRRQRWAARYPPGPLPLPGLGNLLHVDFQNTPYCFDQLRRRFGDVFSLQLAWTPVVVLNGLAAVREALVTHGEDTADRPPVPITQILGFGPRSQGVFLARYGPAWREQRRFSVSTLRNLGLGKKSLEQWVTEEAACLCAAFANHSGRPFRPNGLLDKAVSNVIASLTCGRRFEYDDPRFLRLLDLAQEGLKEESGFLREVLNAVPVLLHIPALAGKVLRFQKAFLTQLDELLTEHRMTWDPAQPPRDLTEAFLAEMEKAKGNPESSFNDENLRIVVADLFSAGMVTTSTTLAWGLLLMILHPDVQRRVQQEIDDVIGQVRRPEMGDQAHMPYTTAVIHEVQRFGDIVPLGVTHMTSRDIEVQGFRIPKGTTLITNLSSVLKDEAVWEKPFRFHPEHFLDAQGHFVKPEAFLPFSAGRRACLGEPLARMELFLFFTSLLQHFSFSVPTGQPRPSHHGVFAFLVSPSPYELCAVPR

In the case of NC[C@@H]1CN[C@H](CNC(=O)c2cc3ccc(-c4ccc(F)cc4)cc3[nH]2)C1 [TXA09155], the “Lowest concentration enhancing activity of monobactams, fluoroquinolones, sulfonamides and tetracyclines” value [1] is given as 6.25 µg/mL.

Molecule NCC(F)C[C@@H](N)CNC(=O)c1cc2ccc(-c3ccc(F)cc3)cc2[nH]1 (stereo partly drawn) [TXA11114, N-((2R)-2,5-diamino-4-fluoropentyl)-6-(4-fluorophenyl)-1H-indole-2-carboxamide] has a fraction unbound ([2]; dog) of 0.011, a fraction unbound ([2]; human, across the four species tested, read-out: Plasma protein binding) of 0.01 to 0.02 and a fraction unbound ([2]; human, read-out: Protein Binding) of 0.01. The fraction unbound ([2]; mouse) was 0.011, the fraction unbound ([2]; rat) was 0.015 and the “Concentrations at which impact on NCF hydrolysis is minimal” value [3] was “below 25 μg/mL”. The “Lowest effective concentration for potentiation” value [4] was 6.25 µg/mL, the IC50 [5] was 63 µM and the IC50 [6] was greater than 100 µM. The IC50 at 24 h [7] was greater than 20 µM, the IC50 at 24 h [8] was greater than 20 µM and the “Reduction in time-kill with levofloxacin” value [9] was no less than 3 log10. The “Reduction in time-kill with levofloxacin” value [10] was “more modest but reproducible reductions” and the Intracellular levofloxacin accumulation [11] was “marked increase in intracellular levofloxacin accumulation”.
